Results from US7713994B2 (Wyeth LLC, priority 2005, dated 2010).

What follows are molecules tested against T1, cyclin D1/cdk 4 enzyme (Homo sapiens, UniProt P11802) (assay: CDK4 ELISA kinase assay (phospho-Rb ser 795 detection)). Conditions: In Vitro Enzyme Assay, cyclin D1/cdk 4, read-out: CDK4 IC50.
T1 construct: made in house; host or cells: Sf9 insect cells, recombinant baculovirus
T1 sequence (P11802 whole entry, species assumed): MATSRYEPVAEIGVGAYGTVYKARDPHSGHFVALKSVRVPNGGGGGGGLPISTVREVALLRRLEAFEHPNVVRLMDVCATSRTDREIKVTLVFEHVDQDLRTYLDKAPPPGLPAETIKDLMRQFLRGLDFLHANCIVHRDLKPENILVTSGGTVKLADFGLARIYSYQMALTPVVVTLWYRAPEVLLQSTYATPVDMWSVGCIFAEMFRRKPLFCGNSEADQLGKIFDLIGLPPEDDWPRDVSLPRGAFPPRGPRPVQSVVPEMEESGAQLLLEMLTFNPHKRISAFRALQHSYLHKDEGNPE
T1 sequence (P24385 whole entry partner, species assumed): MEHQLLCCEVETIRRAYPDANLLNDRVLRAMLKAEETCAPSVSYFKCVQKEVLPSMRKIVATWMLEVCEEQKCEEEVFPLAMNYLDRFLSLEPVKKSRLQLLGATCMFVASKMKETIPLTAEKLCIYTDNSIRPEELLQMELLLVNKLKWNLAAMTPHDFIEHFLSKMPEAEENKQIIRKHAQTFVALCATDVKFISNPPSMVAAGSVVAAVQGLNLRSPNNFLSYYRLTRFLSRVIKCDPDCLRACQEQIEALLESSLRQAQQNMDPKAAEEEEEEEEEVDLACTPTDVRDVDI
Type: biochemical
Procedure: • 1. High-binding ELISA microtiter plates (Costar) were coated with 40 μl of the kinase substrate (GST fusion of C-terminal fragment of the retinoblastoma susceptibility gene product) diluted to 10 μg/ml in tris-buffered saline (TBS), overnight at 4° C. • 2. Non-specific binding sites were blocked for 1 hour at 4° C. with Superblock in TBS (Pierce), and the plates rinsed with water. • 3. For the screen, 1.5 μl of test compound (200 μg/ml stock in 20% DMSO/20 mM HEPES, pH 7.5) was added to each well. Final dose of the test compound in the assay was 10 ug/ml. […] The kinase reaction (30 μl) was dispensed into each well. Reactions contained 200 μM ATP, 0.5 mg/ml bovine serum albumin (BSA; Sigma), and 0.5 μl partially purified cyclin D1/cdk 4 enzyme*. The enzyme complex is expressed in insect cells (Sf9) infected with recombinant baculovirus and partially purified using ammonium sulfate fractionation. Reaction volumes were adjusted to 30 μl with kinase assay buffer (50 mM HEPES, pH 7.5, 10 mM MgCl2, 5% glycerol, 10 mM 2-mercaptoethanol). • *: For CDK2 assay, 1.0 μl cyclin E/CDK2 enzyme (diluted 1:1000 in kinase assay buffer) was used. The enzyme is isolated from insect cells (Sf9) infected with recombinant baculovirus and partially purified using ammonium sulfate fractionation. For CDK1 assay, 0.08 μl cyclin B/CDK1 enzyme [New England BioLabs; the enzyme is isolated from insect cells (Sf9) infected with recombinant baculovirus carrying human cdc 2 and human cyclin B] was used.
[…] • 5. Plates were incubated at 30° C. for 1 hour. • 6. The reaction mixture was removed by aspiration and replaced with 250 μl TBS containing 0.1% Tween-20 and 5% nonfat dry milk (blocking buffer). The plates were incubated at 4° C. for 1 hour. • 7. The blocking buffer was removed and replaced with 50 μl of the primary antibody [anti-phospho-Rb ser 795 (New England BioLabs) diluted 1:1000 in blocking buffer]. Incubation was at 4° C. for 16-20 hours. • 8. The wells were rinsed 3 times with 250 μl of TBS containing 0.1% Tween-20 followed by the addition of 50 μl of secondary antibody [anti-rabbit IgG conjugated to horseradish peroxidase (Amersham Life Science) diluted 1:1000 in blocking buffer]. • 9. After a 1 hour incubation at room temperature, the wells were rinsed 3 times with 250 μl of TBS/0.1% Tween 20. • 10. TMB (3,3′,5,5′-tetramethylbenzidine dihydrochloride) substrate solution (100 μl; Pierce) was added to each well and the color development reaction allowed to proceed 5-10 minutes at room temperature with shaking. The reaction was stopped by the addition of 2N sulfuric acid (100 μl) and the absorbance values read at 450 nm in a microplate reader (Molecular Devices). Analysis of Results: • 1. The percentage of the absorbance value in wells containing the test compound relative to control wells (no test agent) was determined. • 2. IC50 values of selected compounds were determined from inhibition curves, after subtracting background values (no substrate).
In the case of “4-({[6-(3-Cyano-phenyl)-1,3-dioxo-2,3-dihydro-1H-isoquinolin-4-ylidenemethyl]-amino}-methyl)-benzenesulfonamide [Example 756]”, the IC50 is reported as 20.2 µM.
Work on “6-[2-(4-Fluoro-phenyl)-vinyl]-4-{[4-(4-methyl-piperazin-1-yl)-phenylamino]-methylene}-4H-isoquinoline-1,3-dione [Example 731]” yielded an IC50 of 45.2 µM.
Work on `NS(=O)(=O)c1ccc(CNC=C2C(=O)NC(=O)c3ccccc32)cc1` [Example 540, 4-{[(1,3-Dioxo-2,3-dihydro-1H-isoquinolin-4-ylidenemethyl)-amino]-methyl}-benzenesulfonamide] yielded an IC50 of 19.7 µM.
With `O=C1NC(=O)c2ccccc2C1=CNc1ccccc1OC(F)(F)F` [Example 541, 4-[(2-Trifluoromethoxy-phenylamino)-methylene]-4H-isoquinoline-1,3-dione] the IC50 was 37.1 µM.
In the case of `O=C1NC(=O)c2ccccc2C1=CNc1cccc(C(=O)O)c1` [Example 542, 3-[(1,3-Dioxo-2,3-dihydro-1H-isoquinolin-4-ylidenemethyl)-amino]-benzoic acid], the IC50 is reported as 34.8 µM.
Work on `CCN(CC)CCNC(=O)c1ccc(NC=C2C(=O)NC(=O)c3ccccc32)cc1` [Example 543, N-(2-Diethylamino-ethyl)-4-[(1,3-dioxo-2,3-dihydro-1H-isoquinolin-4-ylidenemethyl)-amino]-benzamide] yielded an IC50 of 42.7 µM.
For `O=C1NC(=O)c2ccccc2C1=CNCCc1ccc(O)c(O)c1` [Example 544, 4-{[2-(3,4-Dihydroxy-phenyl)-ethylamino]-methylene}-4H-isoquinoline-1,3-dione], the IC50 was 16.2 µM.
`O=C(O)C(=O)Nc1ccc(NC=C2C(=O)NC(=O)c3ccccc32)cc1` [Example 546, N-{4-[(1,3-Dioxo-2,3-dihydro-1H-isoquinolin-4-ylidenemethyl)-amino]-phenyl}-oxalamic acid] gave an IC50 of 20 µM.
`O=C(O)CSc1ccc(NC=C2C(=O)NC(=O)c3ccccc32)cc1` [Example 548, {4-[(1,3-Dioxo-2,3-dihydro-1H-isoquinolin-4-ylidenemethyl)-amino]-phenylsulfanyl}-acetic acid] gave an IC50 of 35.3 µM.
Molecule `Cc1nnc(NS(=O)(=O)c2ccc(NC=C3C(=O)NC(=O)c4ccccc43)cc2)s1` [Example 549, 4-[(1,3-Dioxo-2,3-dihydro-1H-isoquinolin-4-ylidenemethyl)-amino]-N-(5-methyl-[1,3,4]thiadiazol-2-yl)-benzenesulfonamide] has an IC50 of 40.2 µM.
`O=C1NC(=O)c2ccccc2C1=CNc1ccccc1-c1nc2ccccc2[nH]1` [Example 551, 4-{[2-(1H-Benzoimidazol-2-yl)-phenylamino]-methylene}-4H-isoquinoline-1,3-dione] showed an IC50 of 14.9 µM.
For `O=C1NC(=O)c2ccccc2C1=CNNc1cccc(C(=O)O)c1` [Example 552, 3-[N′-(1,3-Dioxo-2,3-dihydro-1H-isoquinolin-4-ylidenemethyl)-hydrazino]-benzoic acid], the IC50 was 32.2 µM.
In the case of `Cc1nc(NS(=O)(=O)c2ccc(NC=C3C(=O)NC(=O)c4ccccc43)cc2)oc1C` [Example 553, N-(4,5-Dimethyl-oxazol-2-yl)-4-[(1,3-dioxo-2,3-dihydro-1H-isoquinolin-4-ylidenemethyl)-amino]-benzenesulfonamide], the IC50 is reported as 23.7 µM.
Molecule `CC(=O)N(C)c1ccc(NC=C2C(=O)NC(=O)c3ccccc32)cc1` [Example 554, N-{4-[(1,3-Dioxo-2,3-dihydro-1H-isoquinolin-4-ylidenemethyl)-amino]-phenyl}-N-methyl-acetamide] has an IC50 of 36 µM.
`Cc1cc(NS(=O)(=O)c2ccc(NC=C3C(=O)NC(=O)c4ccccc43)cc2)no1` [Example 556, 4-[(1,3-Dioxo-2,3-dihydro-1H-isoquinolin-4-ylidenemethyl)-amino]-N-(5-methyl-isoxazol-3-yl)-benzenesulfonamide] was tested, and the IC50 was 48.4 µM.
Molecule `O=C(O)C=Cc1ccc(NC=C2C(=O)NC(=O)c3ccccc32)cc1` [Example 557, 3-{4-[(1,3-Dioxo-2,3-dihydro-1H-isoquinolin-4-ylidenemethyl)-amino]-phenyl}-acrylic acid] has an IC50 of 19.4 µM.
With `O=C(O)CCCc1ccc(NC=C2C(=O)NC(=O)c3ccccc32)cc1` [Example 558, 4-{4-[(1,3-Dioxo-2,3-dihydro-1H-isoquinolin-4-ylidenemethyl)-amino]-phenyl}-butyric acid] the IC50 was 27.4 µM.
`O=C1NC(=O)c2ccccc2C1=CNc1ccc(O)cc1` [Example 559, 4-[(4-Hydroxy-phenylamino)-methylene]-4H-isoquinoline-1,3-dione] showed an IC50 of 19.3 µM.
Molecule `O=C1NC(=O)c2ccccc2C1=CNc1ccc(C(=O)O)c(O)c1` [Example 560, 4-[(1,3-Dioxo-2,3-dihydro-1H-isoquinolin-4-ylidenemethyl)-amino]-2-hydroxy-benzoic acid] has an IC50 of 17.3 µM.
`COc1ccc(NC=C2C(=O)NC(=O)c3ccccc32)cc1O` [Example 561, 4-[(3-Hydroxy-4-methoxy-phenylamino)-methylene]-4H-isoquinoline-1,3-dione] gave an IC50 of 45.2 µM.
`O=C1NC(=O)c2ccccc2C1=CNc1ccc(O)cc1C(=O)O` [Example 562, 2-[(1,3-Dioxo-2,3-dihydro-1H-isoquinolin-4-ylidenemethyl)-amino]-5-hydroxy-benzoic acid] showed an IC50 of 15.9 µM.
With `O=C1NC(=O)c2ccccc2C1=CNc1c(O)cccc1O` [Example 565, 4-[(2,6-Dihydroxy-phenylamino)-methylene]-4H-isoquinoline-1,3-dione] the IC50 was 38 µM.
`O=C1NC(=O)c2ccccc2C1=CNC(Cc1ccc(O)c(O)c1)C(=O)O` (centres unmarked) [Example 566, 3-(3,4-Dihydroxy-phenyl)-2-[(1,3-dioxo-2,3-dihydro-1H-isoquinolin-4-ylidenemethyl)-amino]-propionic acid] gave an IC50 of 29.7 µM.
For `O=C1NC(=O)c2ccccc2C1=CNc1ccc(O)cc1O` [Example 568, 4-[(2,4-Dihydroxy-phenylamino)-methylene]-4H-isoquinoline-1,3-dione], the IC50 was 16.9 µM.
`O=C1NC(=O)c2ccccc2C1=CNc1cc(Cl)c([N+](=O)[O-])cc1O` [Example 570, 4-[(5-Chloro-2-hydroxy-4-nitro-phenylamino)-methylene]-4H-isoquinoline-1,3-dione] showed an IC50 of 22 µM.
Work on `O=C1NC(=O)c2ccccc2C1=CNc1ccc(N2CCN(CCN3CCOCC3)CC2)cc1` [Example 571, 4-({4-[4-(2-Morpholin-4-yl-ethyl)-piperazin-1-yl]-phenylamino}-methylene)-4H-isoquinoline-1,3-dione] yielded an IC50 of 33.8 µM.
Work on `O=C1NC(=O)c2ccccc2C1=CNc1ccc(N2CCN(CCN3CCCC3)CC2)cc1` [Example 572, 4-({4-[4-(2-Pyrrolidin-1-yl-ethyl)-piperazin-1-yl]-phenylamino}-methylene)-4H-isoquinoline-1,3-dione] yielded an IC50 of 37 µM.
Molecule `Nc1cccc(CNC=C2C(=O)NC(=O)c3ccccc32)c1` [Example 573, 4-[(3-Amino-benzylamino)-methylene]-4H-isoquinoline-1,3-dione] has an IC50 of 30.6 µM.
`NCc1cccc(CNC=C2C(=O)NC(=O)c3ccccc32)c1` [Example 578, 4-[(3-Aminomethyl-benzylamino)-methylene]-4H-isoquinoline-1,3-dione] gave an IC50 of 23.7 µM.
`O=C1NC(=O)c2ccccc2C1=CNCc1cccc(NS(=O)(=O)c2cccs2)c1` [Example 579, Thiophene-2-sulfonic acid (3-{[(1,3-dioxo-2,3-dihydro-1H-isoquinolin-4-ylidenemethyl)-amino]-methyl}-phenyl)-amide] was tested, and the IC50 was 20.4 µM.
Molecule `CC(C)S(=O)(=O)Nc1cccc(CNC=C2C(=O)NC(=O)c3ccccc32)c1` [Example 580, Propane-2-sulfonic acid (3-{[(1,3-dioxo-2,3-dihydro-1H-isoquinolin-4-ylidenemethyl)-amino]-methyl}-phenyl)-amide] has an IC50 of 48.7 µM.
`CS(=O)(=O)Nc1cccc(CNC=C2C(=O)NC(=O)c3ccccc32)c1` [Example 581, N-(3-{[(1,3-Dioxo-2,3-dihydro-1H-isoquinolin-4-ylidenemethyl)-amino]-methyl}-phenyl)-methanesulfonamide] showed an IC50 of 23.6 µM.
